Measured values as given in the supplement of paper PMC10307832.

Experiments:
Test in all cases: relative viability (nuclei count vs DMSO), 5 days (fraction); higher = more cells survive
NCI-H2228 = system: NCI-H2228
Procedure, shortened: (§1)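 Relative viability was taken as the ratio of nuclei in treated wells to nuclei in vehicle wells. Lung cancer cell lines in 1536-well plates received compounds by pin tool one day after seeding, either one drug alone or a fixed anchor-drug dose plus five library-drug doses (not always all listed) in √10 steps. Nuclei were counted on 4× images after 5 days of treatment, and values are medians of duplicate plates.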

ABC-1 = system: ABC-1
Procedure, shortened: as §1

A549 = system: A549
Procedure, shortened: as §1

LOU-NH91 = system: LOU-NH91
Procedure, shortened: as §1

NCI-H1650 = system: NCI-H1650
Procedure, shortened: as §1

NCI-H1755 = system: NCI-H1755
Procedure, shortened: as §1

LK-2 = system: LK-2
Procedure, shortened: as §1

NCI-H1703 = system: NCI-H1703
Procedure, shortened: as §1

Calu-6 = system: Calu-6
Procedure, shortened: as §1

NCI-H1299 = system: NCI-H1299
Procedure, shortened: as §1

EBC-1 = system: EBC-1
Procedure, shortened: as §1

NCI-H1666 = system: NCI-H1666
Procedure, shortened: as §1

IA-LM = system: IA-LM
Procedure, shortened: as §1

COCC1(CO)C(=O)C2CCN1CC2 (centres undefined) [PRIMA-1MET] + CS(=O)(=O)N1CCN(Cc2cc3nc(-c4cccc5[nH]ncc45)nc(N4CCOCC4)c3s2)CC1 [Pictilisib] (partner 1 µM)
relative viability (NCI-H2228; first compound 0.2 µM): 0.421
relative viability (NCI-H2228; first compound 0.6325 µM): 0.343
relative viability (NCI-H2228; first compound 2 µM): 0.358
relative viability (NCI-H2228; first compound 6.325 µM): 0.19
relative viability (NCI-H2228; first compound 20 µM): 0.0615
relative viability (ABC-1; first compound 0.2 µM): 0.71
relative viability (ABC-1; first compound 0.6325 µM): 0.5
relative viability (ABC-1; first compound 2 µM): 0.558
relative viability (ABC-1; first compound 6.325 µM): 0.669
relative viability (ABC-1; first compound 20 µM): 0.55
relative viability (A549; first compound 0.2 µM): 0.581
relative viability (A549; first compound 0.6325 µM): 0.403
relative viability (A549; first compound 2 µM): 0.497
relative viability (A549; first compound 6.325 µM): 0.543
relative viability (A549; first compound 20 µM): 0.421
relative viability (LOU-NH91; first compound 0.2 µM): 0.573
relative viability (LOU-NH91; first compound 0.6325 µM): 0.474
relative viability (LOU-NH91; first compound 2 µM): 0.458
relative viability (LOU-NH91; first compound 6.325 µM): 0.467
relative viability (LOU-NH91; first compound 20 µM): 0.366
relative viability (NCI-H1650; first compound 0.2 µM): 0.618
relative viability (NCI-H1650; first compound 0.6325 µM): 0.483
relative viability (NCI-H1650; first compound 2 µM): 0.311
relative viability (NCI-H1650; first compound 6.325 µM): 0.527
relative viability (NCI-H1650; first compound 20 µM): 0.209
relative viability (NCI-H1755; first compound 0.2 µM): 0.187
relative viability (NCI-H1755; first compound 0.6325 µM): 0.421
relative viability (NCI-H1755; first compound 2 µM): 0.206
relative viability (NCI-H1755; first compound 6.325 µM): 0.391
relative viability (NCI-H1755; first compound 20 µM): 0.3
relative viability (LK-2; first compound 0.2 µM): 0.652
relative viability (LK-2; first compound 0.6325 µM): 0.57
relative viability (LK-2; first compound 2 µM): 0.359
relative viability (LK-2; first compound 6.325 µM): 0.364
relative viability (LK-2; first compound 20 µM): 0.16
relative viability (NCI-H1703; first compound 0.2 µM): 0.275
relative viability (NCI-H1703; first compound 2 µM): 0.255
relative viability (NCI-H1703; first compound 6.325 µM): 0.293
relative viability (NCI-H1703; first compound 20 µM): 0.0333
relative viability (Calu-6; first compound 0.2 µM): 0.945
relative viability (Calu-6; first compound 0.6325 µM): 0.873
relative viability (Calu-6; first compound 2 µM): 1.07
relative viability (Calu-6; first compound 6.325 µM): 0.917
relative viability (Calu-6; first compound 20 µM): 0.563
relative viability (NCI-H1299; first compound 0.2 µM): 0.956
relative viability (NCI-H1299; first compound 0.6325 µM): 0.782
relative viability (NCI-H1299; first compound 2 µM): 0.345
relative viability (NCI-H1299; first compound 6.325 µM): 0.808
relative viability (NCI-H1299; first compound 20 µM): 0.0251
relative viability (EBC-1; first compound 0.2 µM): 0.414
relative viability (EBC-1; first compound 0.6325 µM): 0.381
relative viability (EBC-1; first compound 2 µM): 0.402
relative viability (EBC-1; first compound 6.325 µM): 0.434
relative viability (EBC-1; first compound 20 µM): 0.12
relative viability (NCI-H1666; first compound 0.2 µM): 0.494
relative viability (NCI-H1666; first compound 0.6325 µM): 0.335
relative viability (NCI-H1666; first compound 2 µM): 0.54
relative viability (NCI-H1666; first compound 6.325 µM): 0.415
relative viability (NCI-H1666; first compound 20 µM): 0.198
relative viability (IA-LM; first compound 0.2 µM): 0.476
relative viability (IA-LM; first compound 0.6325 µM): 0.253
relative viability (IA-LM; first compound 2 µM): 0.355
relative viability (IA-LM; first compound 6.325 µM): 0.404
relative viability (IA-LM; first compound 20 µM): 0.326
